One assay relates to PCSK9 protein. Nature of the assay: PCSK9 protein amount in HepG2 cells by Western blotting. The note with it: 48 hours; for PCSK9 protein amount (Relative value based on value of control taken as 1): 10 μM in culture medium, corrected by β-actin; for PCSK9 protein amount-reducing action in comparison with the control (in words): 10 μM. The assay is classed as cell-based, human. As to the method: (§1) Influence of a test compound on amount of PCSK9 protein and amount of LDL receptor was studied by adding the test compound to human hepatoma cell strain, HepG2 cells, and measuring amount of PCSK9 protein and amount of LDL receptor (LDLR) by Western blotting after culture for 48 hours.
(§2) Specifically, the HepG2 cells were inoculated on a 6-well plate at a density of 5×10^5 cells/well and cultured overnight, and a test compound dissolved in dimethyl sulfoxide (DMSO), or only DMSO was added to the culture medium in a 1/1000-fold amount. The cells were cultured at 37° C. for 48 hours in a CO2 incubator, the culture was added with 100 μL of the RIPA buffer (50 mM Tris-HCl, pH 7.8, 150 mM NaCl, 1% NP-40, 0.5% sodium deoxycholate, 0.1% SDS, proteinase inhibitor) to disrupt the cells, and proteins were extracted. The extracted proteins were centrifuged at 10000×g, the supernatant was collected, and added with an SDS sample buffer (60 mM Tris-HCl, pH 6.8, 2% SDS, 10% glycerol, 3% mercaptoethanol), and the mixture was subjected to separation by SDS-PAGE (SDS-polyacrylamide gel electrophoresis) using 8% acrylamide gel. After completion of the separation, the proteins were fixed on a nitrocellulose membrane by using iBlot Gel Transfer System (Invitrogen), and blocked by using Block Ace (DS Pharma Biomedical, Catalog No. UK-B 80).
(§3) Detection of the PCSK9 protein, LDLR, and β-actin protein, and measurement of the amounts thereof were performed by labeling the proteins on the membrane using Anti-PCSK9 (Cayman, Catalog No. 1000718), Anti-LDLR (BioVision, Catalog No. 3839-100), and Anti-β-Actin (Sigma, Catalog No. A5316), respectively, as the primary antibody, and Anti-Rabbit IgG-HRP (Sigma, Catalog No. A0545) or Anti-Mouse IgG-HRP (Sigma, Catalog No. A4416) as the secondary antibody, reacting a chemiluminescence reagent (substrate of HRP) with the secondary antibody on the membrane, and then measuring signal intensity using Lumino Image Analyzer LAS-3000 (Fuji Photo Film). The resulting signal intensity wag numprirally evaluated by using image analysis software, Science Lab 2002 Multi Gauge (Fuji Photo Film).
(§4) The resulting measured values of the PCSK9 protein amount and the LDL receptor amount were corrected between those obtained for the sample added with a test compound and the control sample (sample added with only DMSO) using the β-actin protein amounts as index. The corrected PCSK9 protein amount and LDL receptor amount of the test compound addition sample were represented by relative values based on the PCSK9 protein amount and LDL receptor amount of the control sample, respectively, which were taken as 1.

The next assay relates to LDL receptor (LDLR). The assay is described as follows: LDL receptor amount in HepG2 cells by Western blotting. The assay is classed as cell-based, human. The note with it: 48 hours; for LDL receptor amount (Relative value based on value of control taken as 1): 10 μM in culture medium, corrected by β-actin; for LDL receptor amount-increasing action in comparison with the control (in words): 10 μM. On the procedure: as §1, §2, §3, §4
A general note: Immunoblotting shows a protein as a band on a membrane.

For assay [1], the system named is human HMG-CoA reductase mRNA. Nature of the assay: HMG-CoA reductase mRNA expression in HepG2 cells by quantitative real-time PCR. The format is cell-based. Conditions: 10 μM, 8 hours; for HMG-CoA reductase mRNA expression amount (Relative value based on average value of control taken as 1): average ± standard error, 3 samples. As to the method: A test compound was added to the HepG2 cells and the cells were cultured for 8 hours, and then HMG-CoA reductase mRNA expression amount was measured by quantitative real-time PCR.
Specifically, the HepG2 cells were inoculated on a 24-well plate at a density of 2×10^5 cells/well and cultured overnight, and then a test compound dissolved in dimethyl sulfoxide (DMSO), or only DMSO was added to the culture medium in a 1/1000-fold amount. The cells were cultured at 37° C. for 8 hours in a CO2 incubator, and then added with 500 μL of ISOGEN (NIPPON GENE, Catalog No. 31-02501), and the total RNA was extracted. cDNA was synthesized from the extracted total RNA by using High Capacity cDNA Reverse Transcription Kit (Applied Biosystems, Catalog No. 4368813). Expression amount of human HMG-CoA reductase mRNA was measured by quantitative real-time PCR using a set of the following primers: 5′-[…]-3′ (SEQ ID No:1) and 5′-[…]-3′ (SEQ ID No:2) specific to human HMG-CoA reductase, and Fast SYBR Green Master Mix (Applied Biosystems, Catalog No. 4385614). As the measurement apparatus, 7900HT Fast Realtime PCR System was used.
The resulting measured values of the HMG-CoA reductase mRNA expression amount were corrected between those obtained for test compound addition samples (3 samples for each compound) and control samples (sample added with only DMSO, 3 samples) using the β-actin mRNA expression amounts as index. The corrected HMG-CoA reductase mRNA expression amount of the test compound addition sample was represented with a relative value (average±standard error) based on average of the HMG-CoA reductase mRNA expression amounts of the control samples, which was taken as 1.
(In general: Quantitative PCR measures a nucleic acid by following its amplification.)

Another assay concerns human PCSK9 mRNA. Nature of the assay: PCSK9 mRNA expression in HepG2 cells by quantitative real-time PCR. The assay is classed as cell-based. Conditions: 10 μM, 24 hours. As to the method:
Specifically, the HepG2 cells were inoculated on a 24-well plate at a density of 2×10^5 cells/well and cultured overnight, and then a test compound dissolved in dimethyl sulfoxide (DMSO), or only DMSO was added to the culture medium in a 1/1000-fold amount. The cells were cultured at 37° C. for 24 hours in a CO2 incubator, and then added with 500 μl of ISOGEN (NIPPON GENE, Catalog No. 31-02501), and the total RNA was extracted. cDNA was synthesized from the extracted total RNA by using High Capacity cDNA Reverse Transcription Kit (Applied Biosystems, Catalog No. 4368813). Expression amount of human PCSK9 mRNA was measured by quantitative real-time PCR using primers specific to human PCSK9 (Kourimate S. et al., J. Biol. Chem., Vol. 283, p9666), and Fast SYBR Green Master Mix (Applied Biosystems, Catalog No. 4385614). As the measurement apparatus, 7900HT Fast Realtime PCR System was used.
The resulting measured values of the PCSK9 mRNA expression amount were corrected between those obtained for test compound addition samples (3 samples) and control samples (sample added with only DMSO, 3 samples) using the β-actin mRNA expression amounts as index. […]

Assay [2] concerns LDL cholesterol in the plasma. Nature of the assay: Blood LDL cholesterol-reducing action in normal hamsters. The format is in vivo, male Syrian hamsters. The note with it: for LDL cholesterol-reducing rate: based on control group; for Average LDL cholesterol amount ± standard deviation: plasma 4 hours after final administration, control 50 ± 3.0. The text has this:
(S)-trans-{4-[({2-[({1-[3,5-Bis(trifluoromethyl)phenyl]ethyl}{5-[2-(methylsulfonyl)ethoxy]pyrimidin-2-yl}amino)methyl]-4-(trifluoromethyl)phenyl}(ethyl)amino)methyl]cyclohexyl}acetic acid ((S)-isomer compound (III), optical purify: >99% ee) was suspended in a 0.5% methylcellulose solution, and orally administered repeatedly to normal hamsters (male Syrian hamsters) once a day over 14 days by using a metal probe. Four hours after the final administration, blood was collected, and plasma was obtained. Lipoproteins in the plasma were analyzed by automatic measurement using an HPLC system based on the post-labeling method according to the method described in J. Lipid. Res., 43, p805-814. Specifically, 15 μL of a plasma sample was diluted 10 times with PBS containing 1 mM EDTA, and 80 μl of the diluted sample was injected into a gel filtration column (Superose 6 column (column size: 10×300 mm), GE Healthcare Bioscience) connected to an HPLC system (liquid feeding unit: Shimadzu LC-20A System, Shimadzu). Separation was performed at a flow rate of 0.5 mL/minute and a column temperature of 40° C. by using PBS containing 1 mM EDTA as a running buffer. A cholesterol-measuring reagent (Cholesterol E-Test Wako, Wako Pure Chemical Industries) was mixed with the eluate from the column at a flow rate of 0.25 mL/minute, and the reaction was performed at 40° C. in a reaction coil (0.5 mm×15 m) with feeding the eluate. Cholesterols in the eluate obtained from the reaction coil were detected at a wavelength of 600 nm. Area ratio of the LDL fraction based on the resulting total peak area of cholesterols was calculated, and the total cholesterol amount measured beforehand by using Cholesterol E-Test Wako was multiplied by the area ratio of the LDL fraction to calculate LDL cholesterol amount.
Six normal hamsters were used for each of the control group (0.5% methylcellulose solution administration group) and the test compound administration groups (10 mg/kg body weight and 30 mg/kg body weight of (S)-isomer compound (III) administration groups). The hamsters were divided into the groups beforehand on the basis of the total plasma cholesterol value.
The symbols * and *** in Table 3 means that there were significant differences at a significance level of 5% or less (p<0.05) and a significance level of 0.1% or less (p<0.001), respectively, as determined by a multi-group comparison test (Dunnett's multiple comparison test) performed between the control group and each of the test compound administration groups. Further, the LDL cholesterol amount-reducing rate of the test compound administration group based on the control group was calculated in accordance with the following equation 1 as an LDL cholesterol-reducing rate, and indicated in terms of percentage. LDL cholesterol-reducing rate(%)=[(Average of LDL cholesterol amount of control group−Average of LDL cholesterol amount of compound administration group)/Average of LDL cholesterol amount of control group]×100 (Equation 1)

The mark [3] stands for this setting: 10 mg/kg orally once a day over 14 days.
[4] abbreviates: 30 mg/kg orally once a day over 14 days.

Marks after values point to notes of the source that are not given here.

The record followed here is patent US8906895B2, “Optically active dibenzylamine derivative, and method for preparing thereof” (Kowa Company, Ltd., priority 2010, dated 2014).

`CCN(C[C@H]1CC[C@H](CC(=O)O)CC1)c1ccc(C(F)(F)F)cc1CN(c1ncc(OCCS(C)(=O)=O)cn1)C(C)c1cc(C(F)(F)F)cc(C(F)(F)F)c1` (mixture of isomers) [Racemate compound (I), trans-{4-[({2-[({1-[3,5-Bis(trifluoromethyl)phenyl]ethyl}{5-[2-(methylsulfonyl)ethoxy]pyrimidin-2-yl}amino)methyl]-4-(trifluoromethyl)phenyl}(ethyl)amino)methyl]cyclohexyl}acetic acid, reference compound]: in the assay with PCSK9 protein, the “PCSK9 protein amount (Relative value based on value of control taken as 1)” value is given as 0.68 and the “PCSK9 protein amount-reducing action in comparison with the control (in words)” value (“PCSK9 protein amount-reducing action” below) is given as “almost no such actions”. For the same compound, in the assay with LDL receptor (LDLR), the “LDL receptor amount (Relative value based on value of control taken as 1)” value is 0.73 and the “LDL receptor amount-increasing action in comparison with the control (in words)” value (“LDL receptor amount-increasing action” below) is listed as “almost no such actions”. For the same compound, in assay [1], the “Effect on HMG-CoA reductase mRNA expression amount in comparison with the control (in words)” value was “remarkably reduced” and the “HMG-CoA reductase mRNA expression amount (Relative value based on average value of control taken as 1)” value is on record as 0.37 ± 0.02.
Take `CCN(C[C@H]1CC[C@H](CC(=O)O)CC1)c1ccc(C(F)(F)F)cc1CN(c1ncc(OCCSC)cn1)C(C)c1cc(C(F)(F)F)cc(C(F)(F)F)c1` (relative stereo) [trans-{4-[({2-[({1-[3,5-Bis(trifluoromethyl)phenyl]ethyl}{5-[2-(methylthio)ethoxy]pyrimidin-2-yl}amino)methyl]-4-(trifluoromethyl)phenyl}(ethyl)amino)methyl]cyclohexyl}acetic acid]: in assay [1], the “Effect on HMG-CoA reductase mRNA expression amount in comparison with the control (in words)” value is given as “remarkably reduced” and the “HMG-CoA reductase mRNA expression amount (Relative value based on average value of control taken as 1)” value was 0.25 ± 0.03.
`CCN(C[C@H]1CC[C@H](CC(=O)O)CC1)c1ccc(C(F)(F)F)cc1CN(c1ncc(OCCS(C)(=O)=O)cn1)[C@H](C)c1cc(C(F)(F)F)cc(C(F)(F)F)c1` [(R)-Isomer compound (II), (R)-trans-{4-[({2-[({1-[3,5-Bis(trifluoromethyl)phenyl]ethyl}{5-[2-(methylsulfonyl)ethoxy]pyrimidin-2-yl}amino)methyl]-4-(trifluoromethyl)phenyl}(ethyl)amino)methyl]cyclohexyl}acetic acid]: in the assay on PCSK9 protein, the “PCSK9 protein amount (Relative value based on value of control taken as 1)” value was found to be 1.05 and the “PCSK9 protein amount-reducing action” value is given as “almost no such actions”. In addition, in the assay with LDL receptor (LDLR), the “LDL receptor amount (Relative value based on value of control taken as 1)” value was determined as 0.93 and the “LDL receptor amount-increasing action” value is on record as “almost no such actions”.
Turning to `CCN(C[C@H]1CC[C@H](CC(=O)O)CC1)c1ccc(C(F)(F)F)cc1CN(c1ncc(OCCS(C)(=O)=O)cn1)[C@@H](C)c1cc(C(F)(F)F)cc(C(F)(F)F)c1` [(S)-Isomer compound (III), (S)-trans-{4-[({2-[({1-[3,5-Bis(trifluoromethyl)phenyl]ethyl}{5-[2-(methylsulfonyl)ethoxy]pyrimidin-2-yl}amino)methyl]-4-(trifluoromethyl)phenyl}(ethyl)amino)methyl]cyclohexyl}acetic acid], in the assay on PCSK9 protein, the “PCSK9 protein amount (Relative value based on value of control taken as 1)” value turned out to be 0.28 and the “PCSK9 protein amount-reducing action” value is “markedly reduced”. In addition, in the assay on LDL receptor (LDLR), the “LDL receptor amount (Relative value based on value of control taken as 1)” value is listed as 1.73 and the “LDL receptor amount-increasing action” value is “remarkably increased”. In the assay with human PCSK9 mRNA, the “Effect on expression amount of PCSK9 mRNA in comparison with the control (in words)” value was “remarkably reduced”. In addition, the “PCSK9 mRNA expression amount (Relative value based on average value of control taken as 1)” value in the assay with human PCSK9 mRNA (average ± standard error, 3 samples) turned out to be 0.18 ± 0.13. For the same compound, in assay [2] (setting [3]), the LDL cholesterol-reducing rate was 20.0% and the “Average LDL cholesterol amount ± standard deviation” value was 40 ± 2.6* mg/dl. In addition, in assay [2] (setting [4]), the LDL cholesterol-reducing rate was 38.0% and the “Average LDL cholesterol amount ± standard deviation” value is given as 31 ± 2.6*** mg/dl. Further, the “Blood LDL cholesterol-reducing action (in words)” value in assay [2] (normal hamsters, 10 and 30 mg/kg orally, 14 days) is “superior blood LDL cholesterol-reducing action”.
